Source: patent US6653300B2, “Pyrazole compounds useful as protein kinase inhibitors” (Vertex Pharmaceuticals Incorporated, priority 2000, dated 2003)

How the values were obtained:
GSK-3β (AA 1-420) = target: T1, GSK-3β (AA 1-420) (Homo sapiens, UniProt P49841); experiment: Ki determination for the inhibition of GSK-3 (coupled enzyme system); assay type: biochemical; details: 20 μM ATP, 20 nM GSK-3β, 30° C.
T1 construct: GSK-3β (AA 1-420)
Description: Compounds were screened for their ability to inhibit GSK-3β (AA 1-420) activity using a standard coupled enzyme system (Fox et al. (1998) Protein Sci. 7, 2249). Reactions were carried out in a solution containing 100 mM HEPES (pH 7.5), 10 mM MgCl2, 25 mM NaCl, 300 μM NADH, 1 mM DTT and 1.5% DMSO. Final substrate concentrations in the assay were 20 μM ATP (Sigma Chemicals, St Louis, Mo.) and 300 μM peptide (HSSPHQS (PO3H2) EDEEE, American Peptide, Sunnyvale, Calif.). Reactions were carried out at 30° C. and 20 nM GSK-3β. Final concentrations of the components of the coupled enzyme system were 2.5 mM phosphoenolpyruvate, 300 μM NADH, 30 μg/ml pyruvate kinase and 10 μg/ml lactate dehydrogenase.
An assay stock buffer solution was prepared containing all of the reagents listed above with the exception of ATP and the test compound of interest. The assay stock buffer solution (175 μl) was incubated in a 96 well plate with 5 μl of the test compound of interest at final concentrations spanning 0.002 μM to 30 μM at 30° C. for 10 min. […] The reaction was initiated by the addition of 20 μl of ATP (final concentration 20 μM). Rates of reaction were obtained using a Molecular Devices Spectramax plate reader (Sunnyvale, Calif.) over 10 min at 30° C. The Ki values were determined from the rate data as a function of inhibitor concentration.

Aurora-2 = target: T2, Aurora-2 (Homo sapiens, UniProt O14965); experiment: Ki determination for the inhibition of Aurora-2 (coupled enzyme assay); assay type: biochemical; details: 70 nM Aurora-2, 30° C.
T2 sequence (O14965 1-403): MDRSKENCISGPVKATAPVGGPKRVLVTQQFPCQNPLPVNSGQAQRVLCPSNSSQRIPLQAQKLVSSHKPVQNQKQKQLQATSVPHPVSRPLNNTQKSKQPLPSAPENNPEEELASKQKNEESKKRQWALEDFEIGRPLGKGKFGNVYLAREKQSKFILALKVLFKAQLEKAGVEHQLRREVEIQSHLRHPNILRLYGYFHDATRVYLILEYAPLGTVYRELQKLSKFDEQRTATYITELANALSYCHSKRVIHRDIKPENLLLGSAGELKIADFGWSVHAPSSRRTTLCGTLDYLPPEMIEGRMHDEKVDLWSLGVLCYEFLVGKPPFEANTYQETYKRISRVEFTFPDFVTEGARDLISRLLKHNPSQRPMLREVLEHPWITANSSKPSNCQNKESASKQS
Description: Compounds were screened in the following manner for their ability to inhibit Aurora-2 using a standard coupled enzyme assay (Fox et al (1998) Protein Sci 7, 2249).
To an assay stock buffer solution containing 0.1M HEPES 7.5, 10 mM MgCl2, 1 mM DTT, 25 mM NaCl, 2.5 mM phosphoenolpyruvate, […], 30 mg/ml pyruvate kinase, 10 mg/ml lactate dehydrogenase, […], and 800 μM peptide (LRRASLG, American Peptide, Sunnyvale, Calif.) was added a DMSO solution of a compound of the present invention to a final concentration of 30 μM. The resulting mixture was incubated at 30° C. for 10 min. The reaction was initiated by the addition of 10 μL of Aurora-2 stock solution to give a final concentration of 70 nM in the assay. The rates of reaction were obtained by monitoring absorbance at 340 nm over a 5 minute read time at 30° C. using a BioRad Ultramark plate reader (Hercules, Calif.). The Ki values were determined from the rate data as a function of inhibitor concentration.

T1 sequence (P49841 whole entry, the tested form may be a part): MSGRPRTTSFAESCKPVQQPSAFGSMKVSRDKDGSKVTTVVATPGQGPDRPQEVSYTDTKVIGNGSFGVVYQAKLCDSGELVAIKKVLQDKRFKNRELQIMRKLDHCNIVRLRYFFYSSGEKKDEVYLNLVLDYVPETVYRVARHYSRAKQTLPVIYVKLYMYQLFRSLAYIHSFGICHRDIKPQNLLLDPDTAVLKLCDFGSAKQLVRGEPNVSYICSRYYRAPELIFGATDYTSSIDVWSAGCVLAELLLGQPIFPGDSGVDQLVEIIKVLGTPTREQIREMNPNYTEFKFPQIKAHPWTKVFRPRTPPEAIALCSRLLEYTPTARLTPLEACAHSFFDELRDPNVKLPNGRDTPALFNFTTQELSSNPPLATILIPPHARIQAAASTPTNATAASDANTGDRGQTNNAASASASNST

| Ki (GSK-3β (AA 1-420)) | melting point | Ki (Aurora-2) | Structure (SMILES) |
| --- | --- | --- | --- |
| < 100 nM | – | 100 to 1000 nM | Cc1cc(Nc2cc(-c3ccco3)[nH]n2)nc(Nc2ccc(Cl)cc2)n1 [IIIc-9, [2-(4-Chlorophenyl)amino-6-methyl-pyrimidin-4-yl]-[5-(furan-2-yl)-2H-pyrazol-3-yl]-amine] |
| 1000 to 7000 nM | – | 1000 to 10000 nM | CCc1cc(Nc2cc(C)[nH]n2)nc(Nc2nc3ccccc3[nH]2)n1 [IIIc-10, [2-(Benzimidazol-2-ylamino-)6-ethyl-pyrimidin-4-yl]-(5-methyl-2H-pyrazol-3-yl)-amine] |
| < 100 nM | – | 100 to 1000 nM | Cc1cc(Nc2cc(-c3ccccc3)[nH]n2)nc(Nc2ccc(Cl)cc2)n1 [IIIc-11, [2-(4-Chlorophenyl)amino-6-methyl-pyrimidin-4-yl]-(5-phenyl-2H-pyrazol-3-yl)-amine] |
| < 100 nM | – | < 100 nM | CCc1cc(Nc2cc(C)[nH]n2)nc(Nc2ccc(Cl)cc2)n1 [IIIc-12, [2-(4-Chlorophenyl)amino-6-ethyl-pyrimidin-4-yl]-(5-methyl-2H-pyrazol-3-yl)-amine] |
| < 100 nM | – | < 100 nM | c1ccc(Nc2nc(Nc3cc(-c4ccco4)[nH]n3)cc(-c3ccccc3)n2)cc1 [IIIc-15, [5-(Furan-2-yl)-2H-pyrazol-3-yl]-(6-phenyl-2-phenylamino-pyrimidin-4-yl)-amine] |
| < 100 nM | – | 100 to 1000 nM | CCc1cc(Nc2cc(C)[nH]n2)nc(C(C)(C)c2ccccc2)n1 [IIId-20] |
| 1000 to 7000 nM | – | < 100 nM | COc1ccc(Sc2nc(Nc3cc(C4CC4)[nH]n3)c3ccccc3n2)cc1OC [IIa-25, (5-Cyclopropyl-2H-pyrazol-3-yl)-[2-(3,4-dimethoxyphenylsulfanyl)-quinazolin-4-yl]-amine] |
| – | – | < 100 nM | CC(=O)Nc1ccc(Sc2nc(Nc3cc(C)[nH]n3)c3ccc([N+](=O)[O-])cc3n2)cc1 [IIa-53, [2-(4-Acetamido-phenylsulfanyl)-7-nitroquinazolin-4-yl]-(5-methyl-2H-pyrazol-3-yl)-amine] |
| – | – | < 100 nM | CC(=O)Nc1ccc(Sc2nc(Nc3cc(C)[nH]n3)c3ccc(NO)cc3n2)cc1 [IIa-56, [2-(4-Acetamido-phenylsulfanyl)-7-hydroxyaminoquinazolin-4-yl]-(5-methyl-2H-pyrazol-3-yl)-amine] |
| < 100 nM | – | < 100 nM | Cc1cc(Nc2nc(Nc3cccc(Cl)c3)nc3ccccc23)n[nH]1 [IIc-11, [2-(3-Chlorophenylamino)-quinazolin-4-yl]-(5-methyl-2H-pyrazol-3-yl)-amine] |
| 1000 to 7000 nM | 293 to 298 °C | – | Cc1cc(Nc2nc(Nc3ccc4oc(=O)c5ccccc5c4c3)nc3ccccc23)n[nH]1 [IIc-62] |

The remaining lines, values behind:

| Structure (SMILES) | Ki (GSK-3β (AA 1-420)) | melting point | Ki (Aurora-2) |
| --- | --- | --- | --- |
| CN1CCN(c2cc(Nc3cc(C4CC4)[nH]n3)nc(Sc3ccc4ccccc4c3)n2)CC1 [IIIa-8, (5-Cyclopropyl-2H-pyrazol-3-yl)-[6-(1-methylpiperazin-4-yl)-2-(naphthalen-2-ylsulfanyl)-pyrimidin-4-yl]-amine] | 100 to 1000 nM | 113 to 115 °C | – |
| Cc1cc(Nc2cc(-c3ccccc3C)nc(Sc3ccc4ccccc4c3)n2)n[nH]1 [IIIa-10, [6-(2-Methylphenyl)-2-(naphthalen-2-ylsulfanyl)-pyrimidin-4-yl]-(5-methyl-2H-pyrazol-3-yl)-amine] | 100 to 1000 nM | 211 to 214 °C | – |
| CSc1nc(Nc2cc(C)[nH]n2)cc(N2CCN(C)CC2)n1 [IIIa-14, [6-(4-Methylpiperazin-1-yl)-2-methylsulfanyl-pyrimidin-4-yl]-(5-methyl-2H-pyrazol-3-yl)-amine] | – | – | 100 to 1000 nM |
| Cc1cc(Nc2cc(-c3ccccc3)nc(Sc3ccc(NC(=O)C4CC4)cc3)n2)n[nH]1 [IIIa-16, [2-(4-Cyclopropanecarbonylamino-phenylsulfanyl)-6-phenylpyrimidin-4-yl]-(5-methyl-2H-pyrazol-3-yl)-amine] | 1000 to 7000 nM | 253 to 255 °C | – |
| CCCS(=O)(=O)Nc1ccc(Sc2nc(Nc3cc(C)n[nH]3)cc(-c3ccccc3)n2)cc1 [IIIa-17, (5-Methyl-2H-pyrazol-3-yl)-{6-phenyl-2-[4-(propane-1-sulfonylamino)-phenylsulfanyl]-pyrimidin-4-yl}-amine] | < 100 nM | 232 to 235 °C | – |
| CCS(=O)(=O)Nc1ccc(Sc2nc(Nc3cc(C)[nH]n3)cc(-c3ccccc3)n2)cc1 [IIIa-18, [2-(4-Ethanesulfonylamino-phenylsulfanyl)-6-phenyl-pyrimidin-4-yl]-(5-methyl-2H-pyrazol-3-yl)-amine] | < 100 nM | 251 to 254 °C | – |
| COc1ccc(-c2cc(Nc3cc(C)[nH]n3)nc(Sc3ccc(NC(C)=O)cc3)n2)cc1 [IIIa-22, [2-(4-Acetamido-phenyl-sulfanyl)-6-(4-methoxyphenyl)-pyrimidin-4-yl]-(5-methyl-2H-pyrazol-3-yl)-amine] | 100 to 1000 nM | 241 to 245 °C | – |
| CC(=O)Nc1ccc(Sc2nc(Nc3cc(C)[nH]n3)cc(-c3cccc(NC(C)=O)c3)n2)cc1 [IIIa-23, [6-(3-Acetamidophenyl)-2-(4-acetamido-phenyl-sulfanyl)-pyrimidin-4-yl]-(5-methyl-2H-pyrazol-3-yl)-amine] | 100 to 1000 nM | 227 to 230 °C | – |
| Cc1cc(Nc2cc(-c3ccccc3)nc(Sc3ccc(NS(=O)(=O)C(C)C)cc3)n2)n[nH]1 [IIIa-24, [2-(4-Isopropanesulfonylamino-phenyl-sulfanyl)-6-phenyl-pyrimidin-4-yl]-(5-methyl-2H-pyrazol-3-yl)-amine] | < 100 nM | 255 to 257 °C | – |
| Cc1cc(Nc2cc(N3CCOCC3)nc(SCc3cccc(Cl)c3)n2)n[nH]1 [IIIa-26, [2-(3-Chloro-benzylsulfanyl)-6-morpholin-4-yl-pyrimidin-4-yl]-(5-methyl-2H-pyrazol-3-yl)-amine] | 100 to 1000 nM | 224 to 225 °C | – |
| COCCNc1cc(Nc2cc(C)[nH]n2)nc(SCc2cccc(Cl)c2)n1 [IIIa-27, [2-(3-Chloro-benzylsulfanyl)-6-(2-methoxy-ethylamino)-pyrimidin-4-yl]-(5-methyl-2H-pyrazol-3-yl)-amine] | < 100 nM | 101 to 102 °C | – |
| CCC(=O)Nc1ccc(Sc2nc(Nc3cc(C4CC4)[nH]n3)cc(-c3ccccc3)n2)cc1 [IIIa-33, (5-Cyclopropyl-2H-pyrazol-3-yl)-[6-phenyl-2-(4-propionylamino-phenyl-sulfanyl)-pyrimidin-4-yl]-amine] | 100 to 1000 nM | 208 to 209 °C | – |
| Cc1cc(Nc2cc(N3CCOCC3)nc(SCc3ccc4ccccc4c3)n2)n[nH]1 [IIIa-42, (5-Methyl-2H-pyrazol-3-yl)-[6-morpholin-4-yl-2-(naphthalene-2-ylmethylsulfanyl)-pyrimidin-4-yl]-amine] | 100 to 1000 nM | – | 1000 to 10000 nM |
| c1ccc(-c2cc(Nc3cc(C4CC4)[nH]n3)nc(Oc3ccc4ccccc4c3)n2)cc1 [IIIb-1] | – | – | 100 to 1000 nM |
| COC(=O)c1cccc(Oc2nc(Nc3cc(C4CC4)[nH]n3)cc(-c3ccccc3)n2)c1 [IIIb-2] | – | – | 100 to 1000 nM |
| c1ccc2cc(Oc3nc(Nc4cc(C5CC5)[nH]n4)cc(N4CCOCC4)n3)ccc2c1 [IIIb-7] | 100 to 1000 nM | – | 100 to 1000 nM |
| CN1CCN(c2cc(Nc3cc(C4CC4)[nH]n3)nc(Oc3ccc4ccccc4c3)n2)CC1 [IIIb-8] | – | – | 1000 to 10000 nM |
| Cc1cc(Nc2cc(-c3c(C)cccc3C)nc(Oc3ccc4ccccc4c3)n2)n[nH]1 [IIIb-9] | – | – | 1000 to 10000 nM |
| COc1nc(Nc2cc(C)[nH]n2)cc(N2CCN(C)CC2)n1 [IIIb-14] | < 100 nM | – | 1000 to 10000 nM |
| CCC(=O)Nc1ccc(Oc2nc(Nc3cc(C)[nH]n3)cc(-c3ccccc3)n2)cc1 [IIIb-15] | 100 to 1000 nM | – | 100 to 1000 nM |
| Cc1cc(Nc2cc(-c3ccccc3)nc(Oc3ccc(NC(=O)C4CC4)cc3)n2)n[nH]1 [IIIb-16] | 100 to 1000 nM | – | 100 to 1000 nM |
